Data on 19 compounds can be found in patent publication US12264134B2 (Merck Sharp & Dohme LLC, priority 2018, dated 2025).

The term IC50 denotes the concentration that inhibits the measured activity by half.

In the assay the target is IDO1 (Homo sapiens, UniProt P14902). As to the kind of experiment: IDO1 Cellular Assay in HeLa Cells Stimulated with IFNγ. The format is cell-based. To be noted: read-out: HeLa Cell Potency, IC50.
Chain of IDO1 (P14902 whole entry): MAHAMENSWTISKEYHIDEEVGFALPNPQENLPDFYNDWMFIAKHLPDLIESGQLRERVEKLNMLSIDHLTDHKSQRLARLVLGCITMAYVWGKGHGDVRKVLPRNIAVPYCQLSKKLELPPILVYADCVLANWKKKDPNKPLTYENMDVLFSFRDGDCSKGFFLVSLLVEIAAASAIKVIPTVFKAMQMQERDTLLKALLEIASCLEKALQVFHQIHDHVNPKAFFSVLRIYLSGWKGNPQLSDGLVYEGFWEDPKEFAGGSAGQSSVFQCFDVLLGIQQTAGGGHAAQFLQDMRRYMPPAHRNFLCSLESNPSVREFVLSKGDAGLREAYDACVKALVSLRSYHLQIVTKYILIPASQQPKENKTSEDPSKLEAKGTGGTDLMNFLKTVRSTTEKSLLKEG

Turning to `Cc1c(Cl)cccc1N1CCN(C(=O)Cn2nc(C(=O)N3CCC(O)CC3)c3c2CCC(F)C3)CC1` (stereo not shown) [Example 372, 1-(4-(3-chloro-2-methylphenyl)piperazin-1-yl)-2-(5-fluoro-3-(4-hydroxypiperidine-1-carbonyl)-4,5,6,7-tetrahydro-1H-indazol-1-yl)ethan-1-one], the IC50 is 0.00232 µM.

In the case of `Cc1cccc(N2CCN(C(=O)Cn3nc(C(=O)N4CCC(O)(C(N)=O)CC4)c4c3CCC4)CC2)c1C` [Example 169, 1-(1-{2-[4-(2,3-dimethylphenyl)piperazin-1-yl]-2-oxoethyl}-1,4,5,6-tetrahydrocyclopenta[c]pyrazole-3-carbonyl)-4-hydroxypiperidine-4-carboxamide], the IC50 came out at 0.0304 µM.

Turning to `Cc1cccc(N2CCN(C(=O)Cn3nc(C(=O)N4CC5CC(C4)C5O)c4c3CCC4)CC2)c1C` (stereo not shown) [Example 306, 1-[4-(2,3-dimethylphenyl)piperazin-1-yl]-2-[3-(6-hydroxy-3-azabicyclo[3.1.1]heptane-3-carbonyl)-5,6-dihydrocyclopenta[c]pyrazol-1(4H)-yl]ethan-1-one], the 50% inhibitory concentration (IC50) was 0.0554 µM.

`Cc1cccc(N2CCN(C(=O)Cn3nc(C(=O)N4CC[C@H](C(C)(C)O)C4)c4c3C[C@H]3C[C@@H]43)CC2)c1C` [Example 262, 1-[4-(2,3-dimethylphenyl)piperazin-1-yl]-2-{(3bR,4aR)-3-[(3S)-3-(2-hydroxypropan-2-yl)pyrrolidine-1-carbonyl]-3b,4,4a,5-tetrahydro-1H-cyclopropa[3,4]cyclopenta[1,2-c]pyrazol-1-yl}ethan-1-one]: the IC50 amounted to 0.00082 µM.

Regarding `C[C@@H]1CN(C(=O)c2nn(CC(=O)N3CCN(c4cccc(Cl)c4F)CC3)c3c2CCC3)C[C@H](C)O1` [Example 78, 1-[4-(3-chloro-2-fluorophenyl)piperazin-1-yl]-2-{3-[(2R,6S)-2,6-dimethylmorpholine-4-carbonyl]-5,6-dihydrocyclopenta[c]pyrazol-1(4H)-yl}ethan-1-one], the concentration for half-maximal inhibition (IC50) came to 0.0382 µM.

Consider `Cc1cccc(N2CCN(C(=O)Cn3nc(C(=O)N4CCC(O)CC4(C)C)c4c3CCC4)CC2)c1C` (stereo not shown) [Example 119, 1-[4-(2,3-dimethylphenyl)piperazin-1-yl]-2-[3-(4-hydroxy-2,2-dimethylpiperidine-1-carbonyl)-5,6-dihydrocyclopenta[c]pyrazol-1(4H)-yl]ethan-1-one], for which the IC50 is 0.0333 µM.

With `Cc1cccc(N2CCN(C(=O)Cn3nc(C(=O)N4CCC(O)C(CO)C4)c4c3C[C@H]3C[C@@H]43)CC2)c1C` (stereo partly drawn) [Example 264, 1-[4-(2,3-dimethylphenyl)piperazin-1-yl]-2-{(3bR,4aR)-3-[4-hydroxy-3-(hydroxymethyl)piperidine-1-carbonyl]-3b,4,4a,5-tetrahydro-1H-cyclopropa[3,4]cyclopenta[1,2-c]pyrazol-1-yl}ethan-1-one], the IC50 was found to be 0.00128 µM.

As for `Cc1cccc(N2CCN(C(=O)Cn3nc(C(=O)N4CCC5(CCCC(=O)N5)CC4)c4c3CCC4)CC2)c1C` [Example 183, 9-(1-{2-[4-(2,3-dimethylphenyl)piperazin-1-yl]-2-oxoethyl}-1,4,5,6-tetrahydrocyclopenta[c]pyrazole-3-carbonyl)-1,9-diazaspiro[5.5]undecan-2-one], the half-inhibitory concentration (IC50) came to 0.00322 µM.

Take `Cc1cccc(N2CCN(C(=O)Cn3nc(C(=O)N4CCC(NC(N)=O)CC4)c4c3C[C@H]3C[C@@H]43)CC2)c1C` [Example 255, N-{1-[(3bR,4aR)-1-{2-[4-(2,3-dimethylphenyl)piperazin-1-yl]-2-oxoethyl}-3b,4,4a,5-tetrahydro-1H-cyclopropa[3,4]cyclopenta[1,2-c]pyrazole-3-carbonyl]piperidin-4-yl}urea]: the half-maximal inhibitory concentration (IC50) amounted to 0.0131 µM.

Regarding `Cc1ccc(N2CCN(C(=O)Cn3nc(C(=O)N4C[C@@H](C)O[C@@H](C)C4)c4c3CCC4)CC2)cc1Cl` [Example 61, 1-[4-(3-chloro-4-methylphenyl)piperazin-1-yl]-2-{3-[(2R,6S)-2,6-dimethylmorpholine-4-carbonyl]-5,6-dihydrocyclopenta[c]pyrazol-1(4H)-yl}ethan-1-one], the IC50 was found to be 0.0656 µM.

Regarding `Cc1cccc(N2CCN(C(=O)Cn3nc(C(=O)N4CC[C@H](O)[C@@H](F)C4)c4c3CC(O)C4)CC2)c1C` (single isomer, unassigned) [Example 416], the IC50 is 0.0757 µM.

For `Cc1cccc(N2CCN(C(=O)Cn3nc(C(=O)N4CCN(C(=O)CN)CC4)c4c3CCC4)CC2)c1C` [Example 398, 2-amino-1-(4-(1-(2-(4-(2,3-dimethylphenyl)piperazin-1-yl)-2-oxoethyl)-1,4,5,6-tetrahydrocyclopenta[c]pyrazole-3-carbonyl)piperazin-1-yl)ethanone], the IC50 worked out at 0.258 µM.

As to `Cc1c(F)ccc(N2CCN(C(=O)Cn3nc(C(=O)N4CC[C@H](O)[C@@H](F)C4)c4c3CCCC4)CC2)c1C` [Example 459, 1-(4-(4-fluoro-2,3-dimethylphenyl)piperazin-1-yl)-2-(3-((3S,4S)-3-fluoro-4-hydroxypiperidine-1-carbonyl)-4,5,6,7-tetrahydro-1H-indazol-1-yl)ethanone], the IC50 was 0.00117 µM.

Take `Cc1cccc(N2CCN(C(=O)Cn3nc(C(=O)N4CCO[C@H](CO)C4)c4c3C[C@H]3C[C@@H]43)C3(CC3)C2)c1C` [Example 363, 1-(7-(2,3-dimethylphenyl)-4,7-diazaspiro[2.5]octan-4-yl)-2-((3bR,4aR)-3-((S)-2-(hydroxymethyl)morpholine-4-carbonyl)-3b,4,4a,5-tetrahydro-1H-cyclopropa[3,4]cyclopenta[1,2-c]pyrazol-1-yl)ethanone]: the IC50 amounted to 0.00252 µM.

As to `COc1c(F)cc(N2CCN(C(=O)Cn3nc(C(=O)N4C[C@@H](C)O[C@@H](C)C4)c4c3CCC4)CC2)cc1F` [Example 27, 1-[4-(3,5-difluoro-4-methoxyphenyl)piperazin-1-yl]-2-{3-[(2R,6S)-2,6-dimethylmorpholine-4-carbonyl]-5,6-dihydrocyclopenta[c]pyrazol-1(4H)-yl}ethan-1-one], the IC50 amounted to 0.11 µM.

`C[C@@H]1CN(C(=O)c2nn(CC(=O)N3CCN(c4cccc(F)c4Cl)CC3)c3c2CCC3)C[C@H](C)O1` [Example 32, 1-[4-(2-chloro-3-fluorophenyl)piperazin-1-yl]-2-{3-[(2R,6S)-2,6-dimethylmorpholine-4-carbonyl]-5,6-dihydrocyclopenta[c]pyrazol-1(4H)-yl}ethan-1-one]: the IC50 is 0.117 µM.

For `Cc1cccc(N2CCN(C(=O)Cn3nc(C(=O)N4CCC5(CCC(=O)N5C)CC4)c4c3CCC4)CC2)c1C` [Example 140, 8-(1-{2-[4-(2,3-dimethylphenyl)piperazin-1-yl]-2-oxoethyl}-1,4,5,6-tetrahydrocyclopenta[c]pyrazole-3-carbonyl)-1-methyl-1,8-diazaspiro[4.5]decan-2-one], the half-inhibitory concentration (IC50) turned out to be 0.00733 µM.

On to `Cc1cccc(N2CCN(C(=O)Cn3nc(C(=O)N4CC[C@H](O)[C@H](F)C4)c4c3CCC4C(F)F)CC2)c1C` (single isomer, unassigned) [Example 14], for which the IC50 was found to be 0.0438 µM.

As to `COc1ccc(N2CCN(C(=O)Cn3nc(C(=O)N4C[C@@H](C)O[C@@H](C)C4)c4c3CCC4)CC2)c(C)c1C` [Example 47, 2-{3-[(2R,6S)-2,6-dimethylmorpholine-4-carbonyl]-5,6-dihydrocyclopenta[c]pyrazol-1(4H)-yl}-1-[4-(4-methoxy-2,3-dimethylphenyl)piperazin-1-yl]ethan-1-one], the IC50 worked out at 0.083 µM.
